Data from patent publication US10344060B2 (priority 2013, dated 2019).

Experiments:
hNav1.5 = hNav1.5 (Homo sapiens, UniProt Q14524); experiment: cell-based; conditions: ratio of PX tonic IC50 values
hNav1.4 = hNav1.4 (Homo sapiens, UniProt P35499); experiment: cell-based; format: cell-based; conditions: ratio of PX tonic IC50 values
Sequence of hNav1.4 (P35499 whole entry): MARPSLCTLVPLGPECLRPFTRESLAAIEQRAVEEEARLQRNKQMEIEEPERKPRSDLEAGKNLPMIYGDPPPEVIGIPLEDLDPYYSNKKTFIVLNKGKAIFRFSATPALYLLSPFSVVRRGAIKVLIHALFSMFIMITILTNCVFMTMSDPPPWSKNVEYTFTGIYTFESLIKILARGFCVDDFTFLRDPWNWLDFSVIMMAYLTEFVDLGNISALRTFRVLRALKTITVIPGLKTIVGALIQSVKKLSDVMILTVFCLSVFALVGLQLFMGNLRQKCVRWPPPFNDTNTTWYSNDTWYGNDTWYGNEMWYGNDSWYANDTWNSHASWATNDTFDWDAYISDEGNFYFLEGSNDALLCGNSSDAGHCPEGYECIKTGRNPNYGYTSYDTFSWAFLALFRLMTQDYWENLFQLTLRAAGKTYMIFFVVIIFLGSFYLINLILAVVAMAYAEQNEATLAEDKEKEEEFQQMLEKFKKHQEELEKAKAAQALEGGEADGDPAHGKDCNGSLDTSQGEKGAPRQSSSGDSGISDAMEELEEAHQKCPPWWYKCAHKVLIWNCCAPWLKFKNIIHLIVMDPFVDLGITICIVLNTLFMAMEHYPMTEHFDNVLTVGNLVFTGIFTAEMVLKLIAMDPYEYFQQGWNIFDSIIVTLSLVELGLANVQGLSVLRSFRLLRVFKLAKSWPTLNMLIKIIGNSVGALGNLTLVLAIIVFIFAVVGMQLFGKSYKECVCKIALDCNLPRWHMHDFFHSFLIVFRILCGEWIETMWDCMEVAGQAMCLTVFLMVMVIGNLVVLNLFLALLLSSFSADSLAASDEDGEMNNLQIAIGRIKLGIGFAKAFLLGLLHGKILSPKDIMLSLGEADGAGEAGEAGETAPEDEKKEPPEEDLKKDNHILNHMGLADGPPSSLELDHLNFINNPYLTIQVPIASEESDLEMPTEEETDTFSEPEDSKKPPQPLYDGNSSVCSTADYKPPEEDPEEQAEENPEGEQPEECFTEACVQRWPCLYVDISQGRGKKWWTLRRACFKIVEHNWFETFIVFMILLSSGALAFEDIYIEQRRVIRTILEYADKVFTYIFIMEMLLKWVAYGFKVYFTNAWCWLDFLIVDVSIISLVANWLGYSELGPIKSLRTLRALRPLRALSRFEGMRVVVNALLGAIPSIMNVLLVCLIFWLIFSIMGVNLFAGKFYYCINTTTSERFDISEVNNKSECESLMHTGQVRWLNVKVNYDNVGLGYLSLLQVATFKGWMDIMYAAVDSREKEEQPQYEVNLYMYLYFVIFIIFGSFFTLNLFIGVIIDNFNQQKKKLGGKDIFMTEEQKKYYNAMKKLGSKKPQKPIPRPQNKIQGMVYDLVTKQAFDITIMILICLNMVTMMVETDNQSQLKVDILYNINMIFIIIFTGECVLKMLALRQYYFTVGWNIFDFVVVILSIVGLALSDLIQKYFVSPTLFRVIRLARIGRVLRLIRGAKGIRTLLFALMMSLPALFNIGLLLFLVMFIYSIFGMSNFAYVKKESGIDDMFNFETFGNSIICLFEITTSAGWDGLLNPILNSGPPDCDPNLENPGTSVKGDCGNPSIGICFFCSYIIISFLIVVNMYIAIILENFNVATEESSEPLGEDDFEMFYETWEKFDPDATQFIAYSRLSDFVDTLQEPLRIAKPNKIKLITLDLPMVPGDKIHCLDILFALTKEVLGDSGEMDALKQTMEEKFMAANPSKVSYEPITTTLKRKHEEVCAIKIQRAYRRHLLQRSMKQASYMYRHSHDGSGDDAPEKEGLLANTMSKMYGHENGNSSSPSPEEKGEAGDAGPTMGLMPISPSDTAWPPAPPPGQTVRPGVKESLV

Sequence of hNav1.5 (Q14524 whole entry): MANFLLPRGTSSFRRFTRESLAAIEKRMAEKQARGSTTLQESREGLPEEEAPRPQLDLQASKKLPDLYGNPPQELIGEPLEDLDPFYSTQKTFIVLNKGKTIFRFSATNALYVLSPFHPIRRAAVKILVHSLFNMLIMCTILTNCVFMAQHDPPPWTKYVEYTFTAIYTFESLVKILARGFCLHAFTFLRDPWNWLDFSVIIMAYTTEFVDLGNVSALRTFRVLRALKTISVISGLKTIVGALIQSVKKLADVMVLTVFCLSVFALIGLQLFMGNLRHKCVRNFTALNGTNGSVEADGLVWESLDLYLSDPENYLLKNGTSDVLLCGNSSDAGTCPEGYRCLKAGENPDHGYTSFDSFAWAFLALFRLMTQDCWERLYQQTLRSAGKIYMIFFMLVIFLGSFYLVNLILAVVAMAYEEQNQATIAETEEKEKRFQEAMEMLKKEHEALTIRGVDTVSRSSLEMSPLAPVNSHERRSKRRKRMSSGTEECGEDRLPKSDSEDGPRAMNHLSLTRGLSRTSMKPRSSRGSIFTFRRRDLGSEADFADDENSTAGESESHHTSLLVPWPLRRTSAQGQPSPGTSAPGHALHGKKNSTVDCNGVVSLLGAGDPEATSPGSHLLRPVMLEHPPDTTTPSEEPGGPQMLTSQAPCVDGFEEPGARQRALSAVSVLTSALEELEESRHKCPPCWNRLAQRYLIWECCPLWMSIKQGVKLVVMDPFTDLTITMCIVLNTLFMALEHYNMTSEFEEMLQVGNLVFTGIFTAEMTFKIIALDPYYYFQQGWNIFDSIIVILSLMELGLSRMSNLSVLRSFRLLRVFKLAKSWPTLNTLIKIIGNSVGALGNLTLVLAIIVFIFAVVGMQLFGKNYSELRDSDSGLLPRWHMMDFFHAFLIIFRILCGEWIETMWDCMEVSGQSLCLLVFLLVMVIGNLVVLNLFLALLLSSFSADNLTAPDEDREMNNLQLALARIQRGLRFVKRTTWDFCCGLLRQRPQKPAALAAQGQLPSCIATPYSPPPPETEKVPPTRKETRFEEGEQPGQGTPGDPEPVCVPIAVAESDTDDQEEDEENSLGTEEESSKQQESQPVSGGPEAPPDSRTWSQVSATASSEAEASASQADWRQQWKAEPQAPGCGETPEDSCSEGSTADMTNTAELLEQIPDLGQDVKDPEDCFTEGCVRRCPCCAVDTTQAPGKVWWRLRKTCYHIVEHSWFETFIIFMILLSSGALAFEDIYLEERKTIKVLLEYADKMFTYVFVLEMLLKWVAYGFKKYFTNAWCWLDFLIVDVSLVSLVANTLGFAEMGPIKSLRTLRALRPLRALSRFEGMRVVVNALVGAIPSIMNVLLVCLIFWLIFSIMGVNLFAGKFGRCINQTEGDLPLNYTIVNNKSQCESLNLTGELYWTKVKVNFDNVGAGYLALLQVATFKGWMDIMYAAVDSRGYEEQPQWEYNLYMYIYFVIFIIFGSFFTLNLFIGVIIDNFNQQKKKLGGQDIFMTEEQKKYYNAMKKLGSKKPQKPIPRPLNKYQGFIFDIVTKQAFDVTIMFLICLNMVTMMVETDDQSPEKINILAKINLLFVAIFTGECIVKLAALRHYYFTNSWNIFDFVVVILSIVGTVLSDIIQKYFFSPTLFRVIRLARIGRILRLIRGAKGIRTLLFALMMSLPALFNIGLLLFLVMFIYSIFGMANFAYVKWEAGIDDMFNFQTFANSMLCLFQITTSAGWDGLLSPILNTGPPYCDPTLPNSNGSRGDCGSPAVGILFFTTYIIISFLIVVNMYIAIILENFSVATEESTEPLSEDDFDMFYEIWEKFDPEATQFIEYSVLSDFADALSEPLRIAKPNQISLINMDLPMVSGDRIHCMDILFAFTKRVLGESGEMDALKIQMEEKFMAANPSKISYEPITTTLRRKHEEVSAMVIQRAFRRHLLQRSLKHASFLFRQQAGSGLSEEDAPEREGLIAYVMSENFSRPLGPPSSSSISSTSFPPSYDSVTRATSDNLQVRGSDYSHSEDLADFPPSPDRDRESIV

| SMILES | Nav1.5/Nav1.7 (hNav1.5; Table 13) | Nav1.4/Nav1.7 (hNav1.4; Table 13) | Nav1.5/Nav1.7 (hNav1.5; Table 12) | Nav1.4/Nav1.7 (hNav1.4; Table 12) |
| --- | --- | --- | --- | --- |
| CCCC[C@@H]1NC(=O)[C@H](Cc2c[nH]c3ccccc23)NC(=O)[C@H](CCCCN)NC(=O)[C@H](CCC(N)=O)NC(=O)[C@@H](NC(=O)[C@H](Cc2ccc(O)cc2)NC(=O)[C@H](CC#N)NC(=O)[C@@H](N)CCCCN)CSSC[C@@H]2NC(=O)[C@@H]3CSSC[C@@H](C(=O)N[C@@H](CCCNC(=N)N)C(=O)N[C@@H](CCCCN)C(=O)N[C@@H](CCC(=O)O)C(=O)N[C@H](C(N)=O)[C@@H](C)CC)NC(=O)[C@H](Cc4c[nH]c5ccccc45)NC(=O)[C@H](CC(C)C)NC(=O)[C@H](CCCCN)NC(=O)[C@H](CSSC[C@H](NC(=O)[C@H]([C@@H](C)O)NC(=O)[C@H](Cc4c[nH]c5ccccc45)NC1=O)C(=O)N[C@@H](CC(=O)O)C(=O)N[C@@H](CO)C(=O)N[C@@H](CCCCN)C(=O)N[C@@H](CCCNC(=N)N)C(=O)N[C@@H](CCCCNC(=O)[C@@H](N)Cc1cn(CCOCCOCCOCCOCCOCCOCCOCCOCCOCCOCCN)nn1)C(=O)N3)NC(=O)[C@H](CCCNC(=N)N)NC(=O)[C@H](CC(C)C)NC(=O)CNC(=O)[C@H](CCC(=O)O)NC2=O [compound 891] | 655 | 66 |  |  |
| C#CC[C@H](N)C(=O)NCCOCCOCCOCCOCCC(=O)NCCCC[C@@H]1NC(=O)[C@@H]2CSSC[C@H](NC(=O)[C@H](Cc3ccc(O)cc3)NC(=O)[C@@H](N)CC#N)C(=O)N[C@@H](CCC(N)=O)C(=O)N[C@@H](CCCCN)C(=O)N[C@@H](Cc3c[nH]c4ccccc34)C(=O)N[C@@H](CCCC)C(=O)N[C@@H](Cc3c[nH]c4ccccc34)C(=O)N[C@@H]([C@@H](C)O)C(=O)N[C@H]3CSSC[C@H](NC(=O)[C@H](CCCNC(=N)N)NC(=O)[C@H](CC(C)C)NC(=O)CNC1=O)C(=O)N[C@@H](CCCCN)C(=O)N[C@@H](CC(C)C)C(=O)N[C@@H](Cc1c[nH]c4ccccc14)C(=O)N[C@H](C(=O)N[C@@H](CCCNC(=N)N)C(=O)N[C@@H](CCCCN)C(=O)N[C@H](C(=O)N[C@H](C(N)=O)[C@@H](C)CC)[C@@H](C)CC)CSSC[C@H](NC(=O)[C@H](C)NC(=O)[C@H](CCCNC(=N)N)NC(=O)[C@H](CCCCN)NC(=O)[C@H](CO)NC(=O)[C@H](CC(=O)O)NC3=O)C(=O)N2 [compound 385] |  |  | 0 | 0 |
| CCCC[C@@H]1NC(=O)[C@H](Cc2c[nH]c3ccccc23)NC(=O)[C@H](CCCCN)NC(=O)[C@H](CCC(N)=O)NC(=O)[C@@H](NC(=O)[C@H](Cc2ccc(O)cc2)NC(=O)[C@@H](N)CCN=[N+]=[N-])CSSC[C@@H]2NC(=O)[C@@H]3CSSC[C@@H](C(=O)N[C@@H](CCCNC(=N)N)C(=O)N[C@@H](CCCCN)C(=O)N[C@H](C(=O)N[C@@H](Cc4c[nH]c5ccccc45)C(N)=O)[C@@H](C)CC)NC(=O)[C@H](Cc4c[nH]c5ccccc45)NC(=O)[C@H](CC(C)C)NC(=O)[C@H](CCCCN)NC(=O)[C@H](CSSC[C@H](NC(=O)[C@H]([C@@H](C)O)NC(=O)[C@H](Cc4c[nH]c5ccccc45)NC1=O)C(=O)N[C@@H](CC(=O)O)C(=O)N[C@@H](CO)C(=O)N[C@@H](CCCCN)C(=O)N[C@@H](CCCNC(=N)N)C(=O)N[C@@H](C)C(=O)N3)NC(=O)[C@H](CCC(=O)O)NC(=O)[C@H](CC(C)C)NC(=O)CNC(=O)[C@H](CCC(=O)O)NC2=O [compound 308] |  |  | 3351 | 1068 |
| C#CC[C@H](N)C(=O)N[C@@H](Cc1ccc(O)cc1)C(=O)N[C@H]1CSSC[C@@H]2NC(=O)[C@@H]3CSSC[C@@H](C(=O)N[C@@H](CCCNC(=N)N)C(=O)N[C@@H](CCCCN)C(=O)N[C@@H](Cc4ccc(O)cc4)C(=O)N[C@H](C(N)=O)[C@@H](C)CC)NC(=O)[C@H](Cc4c[nH]c5ccccc45)NC(=O)[C@H](CC(C)C)NC(=O)[C@H](CCCCN)NC(=O)[C@H](CSSC[C@H](NC(=O)[C@H]([C@@H](C)O)NC(=O)[C@H](Cc4c[nH]c5ccccc45)NC(=O)[C@H](CCCC)NC(=O)[C@H](Cc4c[nH]c5ccccc45)NC(=O)[C@H](CCCCN)NC(=O)[C@H](CCC(N)=O)NC1=O)C(=O)N[C@@H](CC(=O)O)C(=O)N[C@@H](CO)C(=O)N[C@@H](CCCCN)C(=O)N[C@@H](CCCNC(=N)N)C(=O)N[C@@H](C)C(=O)N3)NC(=O)[C@H](CCC(=O)O)NC(=O)[C@H](CC(C)C)NC(=O)CNC(=O)[C@H](CCC(=O)O)NC2=O [compound 313] |  |  | 10226 | 2261 |
| C#CC[C@@H]1NC(=O)[C@@H]2CSSC[C@H](NC(=O)[C@@H](N)Cc3ccc(O)cc3)C(=O)N[C@@H](CCC(N)=O)C(=O)N[C@@H](CCCCN)C(=O)N[C@@H](Cc3c[nH]c4ccccc34)C(=O)N[C@@H](CCCC)C(=O)N[C@@H](Cc3c[nH]c4ccccc34)C(=O)N[C@@H]([C@@H](C)O)C(=O)N[C@H]3CSSC[C@H](NC(=O)[C@H](CCC(=O)O)NC(=O)[C@H](CC(C)C)NC(=O)CNC1=O)C(=O)N[C@@H](CCCCN)C(=O)N[C@@H](CC(C)C)C(=O)N[C@@H](Cc1c[nH]c4ccccc14)C(=O)N[C@H](C(=O)N[C@@H](CCCNC(=N)N)C(=O)N[C@@H](CCCCN)C(=O)N[C@@H](Cc1ccc(O)cc1)C(=O)N[C@H](C(N)=O)[C@@H](C)CC)CSSC[C@H](NC(=O)[C@H](C)NC(=O)[C@H](CCCNC(=N)N)NC(=O)[C@H](CCCCN)NC(=O)[C@H](CO)NC(=O)[C@H](CC(=O)O)NC3=O)C(=O)N2 [compound 317] |  |  | 927 | 161 |
| C#CC[C@H](N)C(=O)NCCOCCOCCOCCOCCOCCOCCOCCOCCOCCOCCOCCOCCC(=O)NCCCC[C@@H]1NC(=O)[C@H](CCCNC(=N)N)NC(=O)[C@H](CCCCN)NC(=O)[C@H](CO)NC(=O)[C@H](CC(=O)O)NC(=O)[C@@H]2CSSC[C@@H]3NC(=O)[C@H](CCC(=O)O)NC(=O)[C@H](CC(C)C)NC(=O)CNC(=O)[C@H](CCC(=O)O)NC(=O)[C@H](CSSC[C@H](NC(=O)[C@@H](N)Cc4ccc(O)cc4)C(=O)N[C@@H](CCC(N)=O)C(=O)N[C@@H](CCCCN)C(=O)N[C@@H](Cc4c[nH]c5ccccc45)C(=O)N[C@@H](CCCC)C(=O)N[C@@H](Cc4c[nH]c5ccccc45)C(=O)N[C@@H]([C@@H](C)O)C(=O)N2)NC(=O)[C@H](CSSC[C@@H](C(=O)N[C@@H](CCCNC(=N)N)C(=O)N[C@@H](CCCCN)C(=O)N[C@H](C(=O)N[C@@H](Cc2c[nH]c4ccccc24)C(N)=O)[C@@H](C)CC)NC(=O)[C@H](Cc2c[nH]c4ccccc24)NC(=O)[C@H](CC(C)C)NC(=O)[C@H](CCCCN)NC3=O)NC1=O [compound 290] |  |  | 12 | 5 |
| C#CC[C@@H]1NC(=O)[C@H](CC(=O)O)NC(=O)[C@@H]2CSSC[C@@H]3NC(=O)[C@H](CCC(=O)O)NC(=O)[C@H](CC(C)C)NC(=O)CNC(=O)[C@H](CCC(=O)O)NC(=O)[C@H](CSSC[C@H](NC(=O)[C@@H](N)Cc4ccc(O)cc4)C(=O)N[C@@H](CCC(N)=O)C(=O)N[C@@H](CCCCN)C(=O)N[C@@H](Cc4c[nH]c5ccccc45)C(=O)N[C@@H](CCCC)C(=O)N[C@@H](Cc4c[nH]c5ccccc45)C(=O)N[C@@H]([C@@H](C)O)C(=O)N2)NC(=O)[C@H](CSSC[C@@H](C(=O)N[C@@H](CCCNC(=N)N)C(=O)N[C@@H](CCCCN)C(=O)N[C@H](C(=O)N[C@H](C(N)=O)[C@@H](C)CC)[C@@H](C)CC)NC(=O)[C@H](Cc2c[nH]c4ccccc24)NC(=O)[C@H](CC(C)C)NC(=O)[C@H](CCCCN)NC3=O)NC(=O)[C@H](C)NC(=O)[C@H](CCCNC(=N)N)NC(=O)[C@H](CCCCN)NC1=O [compound 344] |  |  | 193 | 230 |
